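Five concentrations, 48 hours, 96-well plates. Here, GI50 denotes the concentration required for 50% inhibition of growth.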 Active and inactive are the calls of the source. No stated cut-off is given here; in the data, active = GI50 up to about 1.1 µM and inactive = higher.
Columns and labels:
Assay in all cases: inhibition of tumour cell growth, NCI panel, 48 h
SNB-19 = system: SNB-19
OVCAR-5 = system: OVCAR-5
RPMI-8226 = system: RPMI-8226
SW-620 = system: SW-620
A549 = system: A549
COLO 205 = system: COLO 205
HOP-62 = system: HOP-62
CCRF-CEM = system: CCRF-CEM
UACC-257 = system: UACC-257
MCF7 = system: MCF7
NCI-H23 = system: NCI-H23
T47D = system: T47D
MDA-N = system: MDA-N
DU-145 = system: DU-145
HCT-116 = system: HCT-116
SF-295 = system: SF-295
SN12C = system: SN12C
PC-3 = system: PC-3
IGROV-1 = system: IGROV-1

For `CNC(=S)N(C1CCCCC1)C1CCCCC1`, the GI50 (SNB-19) was > 100 µM (inactive), the GI50 (OVCAR-5) was > 100 µM (inactive) and the GI50 (RPMI-8226) was 35.7 µM (inactive). The GI50 (SW-620) was > 100 µM (inactive), the GI50 (A549) was 56.9 µM (inactive) and the GI50 (COLO 205) was 66.1 µM (inactive). The GI50 (HOP-62) was > 100 µM (inactive), the GI50 (CCRF-CEM) was 33.1 µM (inactive) and the GI50 (UACC-257) was 34.1 µM (inactive). The GI50 (MCF7) was 54.8 µM (inactive), the GI50 (NCI-H23) was 82.8 µM (inactive) and the GI50 (T47D) was 44 µM (inactive). The GI50 (MDA-N) was > 100 µM (inactive), the GI50 (DU-145) was > 100 µM (inactive) and the GI50 (HCT-116) was 54 µM (inactive). The GI50 (SF-295) was 61.2 µM (inactive), the GI50 (SN12C) was > 100 µM (inactive) and the GI50 (PC-3) was 35.1 µM (inactive). For the same compound, the GI50 (IGROV-1) was > 100 µM (inactive).

For `CSc1ccc(/C=C/C(=O)c2nc3ccccc3[nH]2)cc1`, the GI50 (SNB-19) was 16.1 µM (inactive), the GI50 (OVCAR-5) was 25.2 µM (inactive) and the GI50 (RPMI-8226) was 3.02 µM (inactive). The GI50 (SW-620) was 9.29 µM (inactive), the GI50 (A549) was 18.2 µM (inactive) and the GI50 (COLO 205) was 18.1 µM (inactive). For the same compound, the GI50 (HOP-62) was 24.3 µM (inactive), the GI50 (CCRF-CEM) was 3.49 µM (inactive) and the GI50 (UACC-257) was 20.6 µM (inactive). The GI50 (MCF7) was 2.64 µM (inactive), the GI50 (NCI-H23) was 23.6 µM (inactive) and the GI50 (T47D) was 3.95 µM (inactive). For the same compound, the GI50 (MDA-N) was 7.36 µM (inactive), the GI50 (DU-145) was 1.87 µM (inactive) and the GI50 (HCT-116) was 12.7 µM (inactive). The GI50 (SF-295) was 24.3 µM (inactive), the GI50 (SN12C) was 29.2 µM (inactive) and the GI50 (PC-3) was 12.3 µM (inactive). The GI50 (IGROV-1) was 30.3 µM (inactive).

With `CCOC(=O)c1nnsc1NC(=O)NCCCCCCn1c(=O)n(CCCCCCNC(=O)Nc2snnc2C(=O)OCC)c(=O)n(CCCCCCNC(=O)Nc2snnc2C(=O)OCC)c1=O` the GI50 (SNB-19) was 18.6 µM (inactive), the GI50 (OVCAR-5) was > 100 µM (inactive) and the GI50 (RPMI-8226) was 11 µM (inactive). For the same compound, the GI50 (SW-620) was 67.6 µM (inactive), the GI50 (A549) was > 100 µM (inactive) and the GI50 (COLO 205) was > 100 µM (inactive). For the same compound, the GI50 (HOP-62) was 25.4 µM (inactive), the GI50 (CCRF-CEM) was 38.5 µM (inactive) and the GI50 (UACC-257) was 85.3 µM (inactive). For the same compound, the GI50 (MCF7) was 97.3 µM (inactive), the GI50 (NCI-H23) was 24.9 µM (inactive) and the GI50 (T47D) was 33 µM (inactive). For the same compound, the GI50 (MDA-N) was 36.8 µM (inactive), the GI50 (DU-145) was 49.3 µM (inactive) and the GI50 (HCT-116) was 38.8 µM (inactive). For the same compound, the GI50 (SF-295) was 16.9 µM (inactive), the GI50 (SN12C) was 33.3 µM (inactive) and the GI50 (PC-3) was 50.9 µM (inactive). The GI50 (IGROV-1) was 32.1 µM (inactive).

`Oc1cc(-c2ccccc2)cn2c1nc1ccccc12` was tested, and the GI50 (SNB-19) was 3.45 µM (inactive), the GI50 (OVCAR-5) was > 100 µM (inactive) and the GI50 (RPMI-8226) was 2.3 µM (inactive). The GI50 (SW-620) was 0.544 µM (active), the GI50 (A549) was 1.73 µM (inactive) and the GI50 (COLO 205) was 21.3 µM (inactive). For the same compound, the GI50 (HOP-62) was 2.4 µM (inactive), the GI50 (CCRF-CEM) was 3.4 µM (inactive) and the GI50 (UACC-257) was > 63.5 µM (inactive). The GI50 (MCF7) was 1.22 µM (inactive), the GI50 (NCI-H23) was 6.37 µM (inactive) and the GI50 (T47D) was 1.5 µM (inactive). The GI50 (MDA-N) was 0.253 µM (active), the GI50 (DU-145) was 4.55 µM (inactive) and the GI50 (HCT-116) was 0.767 µM (active). For the same compound, the GI50 (SF-295) was 6 µM (inactive), the GI50 (SN12C) was 4.06 µM (inactive) and the GI50 (PC-3) was 3.85 µM (inactive). The GI50 (IGROV-1) was 1.43 µM (inactive).

With `Nn1c(Cc2ccc([N+](=O)[O-])cc2)n[nH]c1=O` the GI50 (SNB-19) was > 100 µM (inactive), the GI50 (OVCAR-5) was > 100 µM (inactive) and the GI50 (RPMI-8226) was > 100 µM (inactive). For the same compound, the GI50 (SW-620) was > 100 µM (inactive), the GI50 (A549) was > 100 µM (inactive) and the GI50 (COLO 205) was > 100 µM (inactive). The GI50 (HOP-62) was > 100 µM (inactive), the GI50 (CCRF-CEM) was > 100 µM (inactive) and the GI50 (UACC-257) was > 100 µM (inactive). For the same compound, the GI50 (MCF7) was > 100 µM (inactive), the GI50 (NCI-H23) was > 100 µM (inactive) and the GI50 (T47D) was > 100 µM (inactive). The GI50 (MDA-N) was > 100 µM (inactive), the GI50 (DU-145) was > 100 µM (inactive) and the GI50 (HCT-116) was > 100 µM (inactive). For the same compound, the GI50 (SF-295) was > 100 µM (inactive), the GI50 (SN12C) was > 100 µM (inactive) and the GI50 (PC-3) was > 100 µM (inactive). The GI50 (IGROV-1) was > 100 µM (inactive).

With `O=C(/C=C(\N=P(c1ccccc1)(c1ccccc1)c1ccccc1)C(F)(F)C(F)(F)C(F)(F)C(F)(F)C(F)(F)C(F)(F)C(F)(F)F)c1ccccc1` the GI50 (SNB-19) was > 100 µM (inactive), the GI50 (OVCAR-5) was > 100 µM (inactive) and the GI50 (RPMI-8226) was > 100 µM (inactive). For the same compound, the GI50 (SW-620) was > 100 µM (inactive), the GI50 (A549) was > 100 µM (inactive) and the GI50 (COLO 205) was > 100 µM (inactive). For the same compound, the GI50 (HOP-62) was > 100 µM (inactive), the GI50 (CCRF-CEM) was > 100 µM (inactive) and the GI50 (UACC-257) was > 100 µM (inactive). For the same compound, the GI50 (MCF7) was > 100 µM (inactive), the GI50 (NCI-H23) was > 100 µM (inactive) and the GI50 (T47D) was > 100 µM (inactive). For the same compound, the GI50 (MDA-N) was > 100 µM (inactive), the GI50 (DU-145) was > 100 µM (inactive) and the GI50 (HCT-116) was > 100 µM (inactive). The GI50 (SF-295) was > 100 µM (inactive), the GI50 (SN12C) was > 100 µM (inactive) and the GI50 (PC-3) was > 100 µM (inactive). The GI50 (IGROV-1) was > 100 µM (inactive).

In the case of `CCOC(=O)C(NC(=O)c1cccc(Cl)c1)(N1CCN(c2cc3c(cc2F)c(=O)c(C(=O)O)cn3CC)CC1)C(F)(F)F` (stereo not drawn), the GI50 (SNB-19) was 29.4 µM (inactive), the GI50 (OVCAR-5) was 17.4 µM (inactive) and the GI50 (RPMI-8226) was 10.9 µM (inactive). For the same compound, the GI50 (SW-620) was 12.9 µM (inactive), the GI50 (A549) was 18.7 µM (inactive) and the GI50 (COLO 205) was 18.1 µM (inactive). The GI50 (HOP-62) was 20.5 µM (inactive), the GI50 (CCRF-CEM) was 2.61 µM (inactive) and the GI50 (UACC-257) was 27.4 µM (inactive). The GI50 (MCF7) was 13.8 µM (inactive), the GI50 (NCI-H23) was 18 µM (inactive) and the GI50 (T47D) was 19.4 µM (inactive). The GI50 (MDA-N) was 14.9 µM (inactive), the GI50 (DU-145) was 25.4 µM (inactive) and the GI50 (HCT-116) was 14 µM (inactive). The GI50 (SF-295) was 18.7 µM (inactive), the GI50 (SN12C) was 24.4 µM (inactive) and the GI50 (PC-3) was 13.4 µM (inactive). The GI50 (IGROV-1) was 18.3 µM (inactive).

From ChEMBL document CHEMBL1201862, “PubChem BioAssay data set” (2004)
